Columns and labels:
Format in all cases: biochemical
[1] = biological target: T1, MMP-3 (Homo sapiens, UniProt P08254); test: Automated MMP Profiling Assay, MMP-3 fluorogenic; settings: for IC50: 96-well automated, P218
T1 construct: Truncated Prostromelysin-257 was expressed in a soluble form in E.coli; made in house; host or cells: E. coli
Excerpt: This assay with each invention compound was run with the three enzymes MMP-3, MMP-9 and MMP-2 in parallel as adapted for a 96-well microtitre plate using a Hamilton A® workstation.

[2] = biological target: T2, MMP-2 (Homo sapiens, UniProt P08253); test: Automated MMP Profiling Assay, MMP-2 fluorogenic; settings: 96-well automated, P218; read-out: MMP-2 Fluorogenic IC50 (profiling)
T2 sequence (P08253 110-660): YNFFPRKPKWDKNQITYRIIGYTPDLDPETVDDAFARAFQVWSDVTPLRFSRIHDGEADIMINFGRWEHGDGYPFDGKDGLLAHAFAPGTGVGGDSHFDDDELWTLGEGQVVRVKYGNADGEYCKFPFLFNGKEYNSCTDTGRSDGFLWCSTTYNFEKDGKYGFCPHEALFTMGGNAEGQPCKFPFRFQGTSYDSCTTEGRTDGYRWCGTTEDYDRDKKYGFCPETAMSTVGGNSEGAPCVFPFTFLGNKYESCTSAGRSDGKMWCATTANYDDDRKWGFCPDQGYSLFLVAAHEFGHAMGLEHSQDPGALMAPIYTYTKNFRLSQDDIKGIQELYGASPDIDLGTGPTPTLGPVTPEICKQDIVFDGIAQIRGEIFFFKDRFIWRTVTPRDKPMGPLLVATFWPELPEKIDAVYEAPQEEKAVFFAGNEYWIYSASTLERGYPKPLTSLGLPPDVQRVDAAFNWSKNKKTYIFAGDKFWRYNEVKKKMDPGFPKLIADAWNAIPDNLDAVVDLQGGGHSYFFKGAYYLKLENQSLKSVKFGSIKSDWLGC

[3] = biological target: T3, MMP-9 (Homo sapiens, UniProt P14780); test: Automated MMP Profiling Assay, MMP-9 fluorogenic; settings: for IC50: 96-well automated, P218
T3 construct: from tissue; host or cells: human polymorphonuclear leukocytes (PMN) from whole blood (New York Blood Center), PMA-stimulated supernatant
Description: Briefly, polymorphonuclear leukocytes (PMN) preparations were isolated as described above from 3 or more units of freshly drawn whole blood obtained from the New York Blood Center (New York, N.Y.). Cells were resuspended in phosphate buffered saline (PBS) containing 100 ng/ml phorbol myristate acetate (PMA) in the presence of 50 mM diisopropylfluorophospate (DFP), 1 μg/ml leupeptin and aprotinin, and 1 mg/ml catalase for 1 hr at 37° C. Supernatants were collected by centrifugation (300×g) and the samples were frozen at -70° C. All chromatographic methods were performed at 4° C. Thawed samples were concentrated 5-fold using an Amicon chamber equipped with a YM-10 membrane. The concentrate was pressure dialyzed against 0.02M Tris-HCl, 0.1M NaCl, 1 mM CaCl2, 1 μM ZnCl2, 0.001% Brij-35, 0.02% sodium azide (NaN3), pH 7.5 and applied to DEAE ion exchange chromatography resin which was previously equilibrated with the same buffer at a flow rate of 0.4 ml/min. The column was extensively washed with the same buffer and gelatinase was eluted as 4 ml fractions from the column with 0.02M Tris-HCl, 0.5M NaCl, 1 mM CaCl2, 1 μM ZnCl2, 0.001% Brij-35, 0.02% NaN3, pH 7.5. Gelatinase containing fractions were observed by gelatin zymography (see below), loaded onto a gelatin agarose affinity resin and washed with the same buffer. Gelatinase activity was eluted at a flow rate of 1 ml/min from the column as 1 ml fractions with 0.02M Tris-HCl, 1M NaCl, 1 mM CaCl2, 1 μM ZnCl2, 0.001% Brij-35, 0.02% NaN3, pH 7.5 containing 10% dimethyl sulfoxide (DMSO). The fractions containing gelatinase activity were pooled and dialyzed against 0.005M Tris-HCl, 5 mM NaCl, 0.5 mM CaCl2, 0.1 μM ZnCl2, 0.001% Brij-35, pH 7.4. The protein content associated with material was determined with a micro-BCA assay (Pierce, Rockford, Ill.), lyophilized and reconstituted to a desired working concentration (100 μg/ml).
This assay was run with a protocol analogous to that reported for MMP-3 inhibition using the synthetic peptide P218 and each of the three enzymes and measuring quenched fluorescence. This assay with each invention compound was run with the three enzymes MMP-3, MMP-9 and MMP-2 in parallel as adapted for a 96-well microtitre plate using a Hamilton A® workstation.

T1 sequence (P08254 100-274 limits assumed): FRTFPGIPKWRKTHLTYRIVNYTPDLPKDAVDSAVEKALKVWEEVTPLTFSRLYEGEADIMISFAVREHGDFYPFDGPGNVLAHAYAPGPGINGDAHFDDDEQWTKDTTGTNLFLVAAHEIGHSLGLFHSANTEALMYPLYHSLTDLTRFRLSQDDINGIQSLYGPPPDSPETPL
T3 sequence (P14780 107-707 limits assumed): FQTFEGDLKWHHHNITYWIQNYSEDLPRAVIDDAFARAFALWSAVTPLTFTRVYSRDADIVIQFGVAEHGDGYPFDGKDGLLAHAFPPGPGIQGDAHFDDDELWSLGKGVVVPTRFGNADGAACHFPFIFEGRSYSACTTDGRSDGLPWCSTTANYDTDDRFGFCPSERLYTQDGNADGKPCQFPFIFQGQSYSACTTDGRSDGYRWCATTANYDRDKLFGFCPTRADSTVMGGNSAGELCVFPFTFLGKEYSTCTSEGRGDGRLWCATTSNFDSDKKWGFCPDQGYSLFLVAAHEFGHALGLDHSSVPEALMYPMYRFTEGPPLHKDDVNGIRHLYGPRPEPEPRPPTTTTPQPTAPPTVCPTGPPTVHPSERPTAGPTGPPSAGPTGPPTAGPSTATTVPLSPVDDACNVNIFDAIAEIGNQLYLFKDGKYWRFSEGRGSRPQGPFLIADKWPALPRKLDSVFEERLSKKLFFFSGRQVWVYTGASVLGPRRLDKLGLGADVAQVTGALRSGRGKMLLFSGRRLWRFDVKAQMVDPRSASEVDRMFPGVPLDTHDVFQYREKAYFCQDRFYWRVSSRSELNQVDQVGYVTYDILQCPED

Structure (SMILES)	IC50 [1]	IC50 [2]	IC50 [3]	inhibition at 5 µM [3]	inhibition at 5 µM [1]
COc1cccc2c1C(=O)N(CCC(CC(=O)c1ccc(-c3ccc(Cl)cc3)cc1)C(=O)O)C2=O (stereo not drawn) [Example 423, 2H-Isoindole-2-butanoic acid, α-[2-(4'chloro[1,1'-biphenyl]-4-yl)-2-oxoethyl]-1,3-dihydro-4-methoxy-1,3-dioxo-]	19 nM	15 nM	6.1 nM	–	–
O=C(CC(CCCc1ccccc1)C(=O)O)c1ccc(-c2ccc(Br)cc2)cc1 (stereo not drawn) [Example 134, [1,1'-Biphenyl]-4-butanoic acid, 4'-bromo-γ-oxo-α-(3-phenylpropyl)-]	304 nM	63 nM	358 nM	–	–
COc1ccc(-c2ccc(C(=O)CC(CCc3ccccc3)C(=O)O)cc2)cc1 (stereo not drawn) [Example 154, [1,1'-Biphenyl]-4-butanoic acid, 4'-methoxy-γ-oxo-α-(2-phenylethyl)-]	470 nM	37 nM	875 nM	–	–
O=C(CC(CCCc1ccccc1)C(=O)O)c1ccc(-c2ccc(OCc3ccccn3)cc2)cc1 (stereo not drawn) [Example 110, [1,1'-Biphenyl]-4-butanoic acid, γ-oxo-α-(3-phenylpropyl)-4'-(2-pyridinylmethoxy)-]	37 nM	38 nM	–	26%	–
Cc1cccc(C)c1SCC(CC(=O)c1ccc(-c2ccc(Cl)cc2)cc1)C(=O)O (stereo not drawn) [Example 433, [1,1'-Biphenyl]-4-butanoic acid, 4'-chloro-α-[[(2,6-dimethylphenyl)thio]methyl]-γ-oxo-]	103 nM	6.2 nM	130 nM	–	–
COCCCc1ccc(-c2ccc(C(=O)CC(CCCc3ccccc3)C(=O)O)cc2)cc1 (stereo not drawn) [Example 355, [1,1'-Biphenyl]-4-butanoic acid, 4'-(3-methoxypropyl)-γ-oxo-α-(3-phenylpropyl)-]	508 nM	90 nM	1080 nM	–	–
CCCCCOc1ccc(-c2ccc(C(=O)CC(CCN3C(=O)c4ccccc4C3=O)C(=O)O)cc2)cc1 (stereo not drawn) [Example 272]	9.2 nM	2.28 nM	10.8 nM	–	–
O=C(Nc1ccc(-c2ccc(C(=O)CC(CCc3ccccc3)C(=O)O)cc2)cc1)OCc1ccccc1 (stereo not drawn) [Example 137, [1,1'-Biphenyl]-4-butanoic acid, γ-oxo-α-(2-phenylethyl)-4'-[[(phenylmethoxy)carbonyl]amino]-]	> 1250 nM	548 nM	1400 nM	–	–
CC(C)CCOc1ccc(-c2ccc(C(=O)CC(CCCc3ccccc3)C(=O)O)cc2)cc1 (stereo not drawn) [Example 96, [1,1'-Biphenyl]-4-butanoic acid, 4'-(3-methylbutoxy)-γ-oxo-α-(3-phenylpropyl)-]	232 nM	72 nM	> 1250 nM	–	–
CCCCNC(=O)c1ccccc1CCC(CC(=O)c1ccc(-c2ccc(Cl)cc2)cc1)C(=O)O (stereo not drawn) [Example 147, [1,1'-Biphenyl]-4-butanoic acid, α-[2-[2-[(butylamino)carbonyl]phenyl]ethyl]-4'-chloro-γ-oxo-]	266 nM	73 nM	676 nM	–	–
O=C(CC(CCCc1ccccc1)C(=O)O)c1ccc(-c2ccc(OCC3CC3)cc2)cc1 (stereo not drawn) [Example 97, [1,1'-Biphenyl]-4-butanoic acid, 4'-(cyclopropylmethoxy)-γ-oxo-α-(3-phenylpropyl)-]	153 nM	48 nM	229 nM	–	–
CCOc1ccc(-c2ccc(C(=O)CC(CCN3C(=O)c4cc5ccccc5cc4C3=O)C(=O)O)cc2)cc1 (stereo not drawn) [Example 429, 2H-Benz[.function.]isoindole-2-butanoic acid, α-[2-(4'-ethoxy[1,1'-biphenyl]-4-yl)-2-oxoethyl]-1,3-dihydro-1,3-dioxo-]	23 nM	23 nM	1.6 nM	–	–
O=C(c1ccc(-c2ccc(Cl)cc2)cc1)[C@H]1CCN(C(=O)Cc2ccccc2)[C@@H]1C(=O)O [Example 170, L-Proline, 3-[(4'-chloro[1,1'-biphenyl]-4-yl)carbonyl]-1-(phenylacetyl)-, trans-]	296 nM	103 nM	1800 nM	–	–
CCCC/C=C\c1ccc(-c2ccc(C(=O)CC(CCCc3ccccc3)C(=O)O)cc2)cc1 (stereo not drawn) [Example 356, [1,1'-Biphenyl]-4-butanoic acid, 4'-(1-hexenyl)-γ-oxo-α-(3-phenylpropyl)-, (Z)-]	–	188 nM	–	14%	45%
O=C(CC(CCCc1ccccc1)C(=O)O)c1ccc(-c2ccc(OCC3CCCCC3)cc2)cc1 (stereo not drawn) [Example 93, [1,1'-Biphenyl]-4-butanoic acid, 4'-(cyclohexylmethoxy)-γ-oxo-α-(3-phenylpropyl)-]	129 nM	36 nM	> 1250 nM	–	–
O=C(CC(CCN1C(=O)c2ccncc2C1=O)C(=O)O)c1ccc(-c2ccc(Cl)cc2)cc1 (stereo not drawn) [Example 417, 2H-Pyrrolo[3,4-c]pyridine-2-butanoic acid, α-[2-(4'-chloro[1,1'-biphenyl]-4-yl)-2-oxoethyl]-1,3-dihydro-1,3-dioxo-]	32 nM	3.7 nM	12 nM	–	–
O=C(O)[C@@H]1[C@@H](C(=O)c2ccc(-c3ccc(Cl)cc3)cc2)CC[C@H]1SCc1ccccc1 (relative stereo) [Example 441, Cyclopentanecarboxylic acid, 2-[(4'-chloro[1,1'-biphenyl]-4-yl)carbonyl]-5-[(phenylmethyl)thio]-, (1α,2β,5β)-]	38 nM	27 nM	149 nM	–	–
O=C(CC(CCN1C(=O)c2ccc(O)cc2C1=O)C(=O)O)c1ccc(-c2ccc(Cl)cc2)cc1 (stereo not drawn) [Example 420, 2H-Isoindole-2-butanoic acid, α-[2-(4'chloro[1,1'-biphenyl]-4-yl)-2-oxoethyl]-1,3-dihydro-5-hydroxy-1,3-dioxo-]	14 nM	5.1 nM	1.7 nM	–	–
O=C(CC(CCN1C(=O)c2cc(Cl)c(Cl)cc2C1=O)C(=O)O)c1ccc(-c2ccc(Cl)cc2)cc1 (stereo not drawn) [Example 415, 2H-Isoindole-2-butanoic acid, 5,6-dichloro-α-[2-(4'-chloro[1,1'-biphenyl]-4-yl)-2-oxoethyl]-1,3-dihydro-1,3-dioxo-]	12 nM	34 nM	1.2 nM	–	–
CC(=O)NC(CC(=O)c1ccc(-c2ccc(Cl)cc2)cc1)C(=O)O (stereo not drawn) [Example 430, [1,1'-Biphenyl]-4-butanoic acid, α-(acetylamino)-4'-chloro-γ-oxo-]	–	419 nM	–	37%	28%
CN(C)C(=O)c1cccc(SCC(CC(=O)c2ccc(-c3ccc(Cl)cc3)cc2)C(=O)O)c1 (stereo not drawn) [Example 437, [1,1'-Biphenyl]-4-butanoic acid, 4'-chloro-α-[[[3-[(dimethylamino)carbonyl]phenyl]thio]methyl]-γ-oxo-]	50 nM	15 nM	366 nM	–	–
CCN(CC)C(=O)c1cccc(CCC(CC(=O)c2ccc(-c3ccc(OCc4ccccc4)cc3)cc2)C(=O)O)c1 (stereo not drawn) [Example 165, [1,1'-Biphenyl]-4-butanoic acid, α-[2-[3-[(diethylamino)carbonyl]phenyl]ethyl]-γ-oxo-4'-(phenylmethoxy)-]	13 nM	3 nM	55 nM	–	–
COC/C=C/c1ccc(-c2ccc(C(=O)CC(CCCc3ccccc3)C(=O)O)cc2)cc1 (stereo not drawn) [Example 353, [1,1'-Biphenyl]-4-butanoic acid, 4'-(3-methoxy-1-propenyl)-γ-oxo-α-(3-phenylpropyl)-, (E)-]	84 nM	20 nM	274 nM	–	–

Source: patent US5789434A, “Derivatives of substituted 4-biarylbutyric acid as matrix metalloprotease inhibitors” (priority 1995, dated 1998)
